In ChEMBL document CHEMBL4842376, “Design, synthesis and biological evaluation of novel hybrids targeting mTOR and HDACs for potential treatment of hepatocellular carcinoma” (Eur J Med Chem, 2021):
Calls of active or inactive are those of the source. The rule behind the calls is not given here.

Key:
[1] = target: T1, Protein deacetylase HDAC6 (Homo sapiens) (UniProt Q9UBN7); test: Inhibition of HDAC6 (unknown origin) at 1 uM using Ac-peptide as a substrate pretreated for 15 mins followed by substrate addition relative to control
T1 sequence (whole entry): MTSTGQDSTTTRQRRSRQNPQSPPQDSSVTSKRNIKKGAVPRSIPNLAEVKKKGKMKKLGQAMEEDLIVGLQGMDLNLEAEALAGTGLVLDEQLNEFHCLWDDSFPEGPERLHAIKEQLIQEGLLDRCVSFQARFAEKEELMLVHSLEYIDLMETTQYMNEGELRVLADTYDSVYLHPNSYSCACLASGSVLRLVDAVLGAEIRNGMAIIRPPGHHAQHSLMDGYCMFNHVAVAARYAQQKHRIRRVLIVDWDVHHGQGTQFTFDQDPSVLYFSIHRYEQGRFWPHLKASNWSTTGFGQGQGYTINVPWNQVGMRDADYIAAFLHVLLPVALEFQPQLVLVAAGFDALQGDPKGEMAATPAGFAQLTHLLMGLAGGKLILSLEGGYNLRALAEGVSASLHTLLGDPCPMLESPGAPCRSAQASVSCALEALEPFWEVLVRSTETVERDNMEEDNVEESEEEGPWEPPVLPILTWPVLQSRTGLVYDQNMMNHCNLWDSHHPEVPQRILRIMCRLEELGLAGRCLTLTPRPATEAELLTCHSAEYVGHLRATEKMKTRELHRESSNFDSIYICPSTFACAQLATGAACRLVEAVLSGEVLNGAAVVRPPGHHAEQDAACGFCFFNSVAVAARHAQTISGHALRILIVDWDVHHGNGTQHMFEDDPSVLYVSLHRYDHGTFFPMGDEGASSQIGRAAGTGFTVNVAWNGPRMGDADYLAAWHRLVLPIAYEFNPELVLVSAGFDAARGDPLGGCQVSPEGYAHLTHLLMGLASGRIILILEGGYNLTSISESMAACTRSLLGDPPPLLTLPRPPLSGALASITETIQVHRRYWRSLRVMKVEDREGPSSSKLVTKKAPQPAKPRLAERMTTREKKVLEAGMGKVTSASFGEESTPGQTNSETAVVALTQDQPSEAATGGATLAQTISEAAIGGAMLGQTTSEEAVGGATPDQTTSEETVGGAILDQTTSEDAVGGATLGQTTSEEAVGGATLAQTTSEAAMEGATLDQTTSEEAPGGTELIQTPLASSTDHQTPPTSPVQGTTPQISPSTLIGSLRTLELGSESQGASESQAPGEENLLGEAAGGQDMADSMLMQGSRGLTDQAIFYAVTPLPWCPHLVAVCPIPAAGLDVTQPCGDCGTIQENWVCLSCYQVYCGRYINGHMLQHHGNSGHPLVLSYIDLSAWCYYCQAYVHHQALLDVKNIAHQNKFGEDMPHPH

PLC-PRF-5 = test: Antiproliferative activity against human PLC-PRF-5 cells assessed as inhibition of cell growth measured after 72 hrs by MTT assay; format: functional, cell-based; conditions: PLC-PRF-5, 72 h
Histone deacetylase 2 = Histone deacetylase 2 (Homo sapiens, UniProt Q92769)
Chain of Histone deacetylase 2 (Q92769 whole entry): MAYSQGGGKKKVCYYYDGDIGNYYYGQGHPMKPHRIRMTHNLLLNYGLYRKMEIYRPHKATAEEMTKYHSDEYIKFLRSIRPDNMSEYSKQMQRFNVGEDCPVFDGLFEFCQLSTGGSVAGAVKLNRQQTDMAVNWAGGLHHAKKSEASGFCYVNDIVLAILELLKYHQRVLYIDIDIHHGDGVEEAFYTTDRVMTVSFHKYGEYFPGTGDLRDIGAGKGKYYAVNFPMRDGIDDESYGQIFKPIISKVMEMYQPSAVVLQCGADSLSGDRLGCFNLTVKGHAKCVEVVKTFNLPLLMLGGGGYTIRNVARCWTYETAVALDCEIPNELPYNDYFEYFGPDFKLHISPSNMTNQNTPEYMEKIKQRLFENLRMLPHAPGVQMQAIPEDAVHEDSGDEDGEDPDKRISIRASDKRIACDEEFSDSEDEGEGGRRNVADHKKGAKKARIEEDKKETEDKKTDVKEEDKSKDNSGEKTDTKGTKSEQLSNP

Hep 3B2 = test: cells; format: functional, cell-based; conditions: Homo sapiens, Hep3B, 72 h
Description: Antiproliferative activity against human Hep3B cells assessed as inhibition of cell growth measured after 72 hrs by MTT assay

A549 = test: cells; format: functional, cell-based; conditions: Homo sapiens, A549, 72 h
Description: Antiproliferative activity against human A549 cells assessed as inhibition of cell growth measured after 72 hrs by MTT assay

HepG2 = test: Antiproliferative activity against human HepG2 cells assessed as inhibition of cell growth measured after 72 hrs by MTT assay; format: functional, cell-based; conditions: HepG2, 72 h
HCT-116 = test: cells; format: functional, cell-based; conditions: Homo sapiens, HCT-116, 72 h
Description: Antiproliferative activity against human HCT-116 cells assessed as inhibition of cell growth measured after 72 hrs by MTT assay

Huh-7 = test: cells; format: functional, cell-based; conditions: Homo sapiens, Huh-7, 72 h
Description: Antiproliferative activity against human Huh-7 cells assessed as inhibition of cell growth measured after 72 hrs by MTT assay

[2] = target: T2, Histone deacetylase (Homo sapiens) (UniProt Q13547+O15379+Q9UBN7+Q92769+Q9UQL6+Q8WUI4+Q9BY41+Q96DB2+P56524+Q9UKV0+Q969S8); test: Inhibition of HDAC in human HepG2 cells assessed as upregulation of histone H3 acetylation at 6 uM measured after 24 hrs by western blot analysis; format: cell-based
[3] = Metabolic stability in rat liver microsomes assessed as parent compound remaining at 10 ug/ml measured after 1 hr in the presence of NADPH by HPLC analysis; format: ADME, Microsome; conditions: at 10 µg/mL; for Stabilty: microsomes, 1 h
in vitro = conditions: human, L02 cells versus HepG2 cells
Description: Selectivity index, ratio of IC50 for cytotoxicity against human L02 cells to IC50 for antiproliferative activity against human HepG2 cells

MCF7 = test: cells; format: functional, cell-based; conditions: Homo sapiens, MCF7, 72 h
Description: Antiproliferative activity against human MCF7 cells assessed as inhibition of cell growth measured after 72 hrs by MTT assay

Bel-7402 = test: Antiproliferative activity against human Bel-7402 cells assessed as inhibition of cell growth measured after 72 hrs by MTT assay; format: functional, cell-based; conditions: Bel-7402, 72 h
Histone deacetylase 3 = Histone deacetylase 3 (Homo sapiens, UniProt O15379); test: Inhibition of HDAC3 (unknown origin) using Ac-peptide as a substrate pretreated for 15 mins followed by substrate addition
Chain of Histone deacetylase 3 (O15379 whole entry): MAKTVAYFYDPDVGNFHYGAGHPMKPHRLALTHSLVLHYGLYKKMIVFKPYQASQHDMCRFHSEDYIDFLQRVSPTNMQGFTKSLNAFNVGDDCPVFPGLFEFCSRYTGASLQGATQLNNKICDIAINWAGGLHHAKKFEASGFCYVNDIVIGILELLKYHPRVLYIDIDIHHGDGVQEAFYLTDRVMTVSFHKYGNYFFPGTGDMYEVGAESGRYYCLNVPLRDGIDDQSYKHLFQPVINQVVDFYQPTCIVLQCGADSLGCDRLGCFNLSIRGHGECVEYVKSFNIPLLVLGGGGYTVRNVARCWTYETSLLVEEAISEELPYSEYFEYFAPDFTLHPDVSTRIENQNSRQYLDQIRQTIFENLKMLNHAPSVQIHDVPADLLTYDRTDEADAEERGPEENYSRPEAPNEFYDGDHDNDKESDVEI

SNU-423 = test: Antiproliferative activity against human SNU-423 cells assessed as inhibition of cell growth measured after 72 hrs by MTT assay; format: functional, cell-based; conditions: SNU-423, 72 h
[4] = target: T2, Histone deacetylase (Homo sapiens); test: Inhibition of HDAC in human HepG2 cells assessed as upregulation of alpha-tubulin acetylation at 6 uM measured after 24 hrs by western blot analysis; format: cell-based
[5] = target: T3, Protein deacetylase HDAC6 (Homo sapiens, UniProt Q9UBN7); test: Inhibition of HDAC6 (unknown origin) using Ac-peptide as a substrate pretreated for 15 mins followed by substrate addition
T3 sequence (Q9UBN7 whole entry): T1 sequence (whole entry)

MDA-MB-231 = test: cells; format: functional, cell-based; conditions: Homo sapiens, MDA-MB-231, 72 h
Description: Antiproliferative activity against human MDA-MB-231 cells assessed as inhibition of cell growth measured after 72 hrs by MTT assay

[6] = target: Serine/threonine-protein kinase mTOR (Homo sapiens, UniProt P42345); test: Inhibition of mTOR (unknown origin) at 1 uM using U-Light-4E-BP1 peptide as a substrate in the presence of ATP incubated for 30 mins by Lance ultra assay relative to control
L02 = test: cells; format: ADME, cell-based; conditions: Homo sapiens, L02, 72 h
Description: Cytotoxicity against human L02 cells assessed as reduction in cell viability measured after 72 hrs by MTT assay

Histone deacetylase 8 = target: T4, Histone deacetylase 8 (Homo sapiens, UniProt Q9BY41); test: Inhibition of HDAC8 (unknown origin) using Ac-peptide as a substrate pretreated for 15 mins followed by substrate addition
T4 sequence (Q9BY41 whole entry): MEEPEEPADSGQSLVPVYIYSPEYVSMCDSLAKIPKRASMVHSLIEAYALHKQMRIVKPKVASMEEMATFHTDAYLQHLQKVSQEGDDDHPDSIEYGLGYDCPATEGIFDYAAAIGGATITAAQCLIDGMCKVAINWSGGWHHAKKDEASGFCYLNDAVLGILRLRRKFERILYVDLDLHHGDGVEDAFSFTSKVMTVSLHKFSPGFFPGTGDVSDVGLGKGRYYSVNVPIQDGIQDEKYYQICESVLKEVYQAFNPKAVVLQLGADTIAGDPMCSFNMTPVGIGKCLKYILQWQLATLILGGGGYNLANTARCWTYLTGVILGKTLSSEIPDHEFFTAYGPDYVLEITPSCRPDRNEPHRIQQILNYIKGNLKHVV

Histone deacetylase 1 = Histone deacetylase 1 (Homo sapiens, UniProt Q13547); test: Inhibition of HDAC1 (unknown origin) using Ac-peptide as a substrate pretreated for 15 mins followed by substrate addition
Chain of Histone deacetylase 1 (Q13547 whole entry): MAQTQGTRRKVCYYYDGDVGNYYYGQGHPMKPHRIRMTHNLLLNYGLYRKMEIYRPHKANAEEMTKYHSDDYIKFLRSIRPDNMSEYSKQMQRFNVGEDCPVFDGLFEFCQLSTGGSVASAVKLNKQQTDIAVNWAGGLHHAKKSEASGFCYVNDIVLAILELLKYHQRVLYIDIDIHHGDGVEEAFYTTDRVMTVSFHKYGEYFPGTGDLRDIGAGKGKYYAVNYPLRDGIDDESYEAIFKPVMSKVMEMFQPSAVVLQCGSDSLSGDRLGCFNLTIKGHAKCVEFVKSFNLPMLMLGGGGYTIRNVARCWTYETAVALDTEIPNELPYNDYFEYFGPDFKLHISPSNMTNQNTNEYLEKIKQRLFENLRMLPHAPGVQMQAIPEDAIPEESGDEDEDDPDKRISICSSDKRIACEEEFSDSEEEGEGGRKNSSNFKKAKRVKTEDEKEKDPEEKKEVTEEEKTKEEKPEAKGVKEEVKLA

SK-HEP1 = test: cells; format: functional, cell-based; conditions: Homo sapiens, SK-HEP1, 72 h
Description: Antiproliferative activity against human SK-HEP1 cells assessed as inhibition of cell growth measured after 72 hrs by MTT assay

CNE-2 = test: cells; format: functional, cell-based; conditions: Homo sapiens, CNE-2, 72 h
Description: Antiproliferative activity against human CNE-2 cells assessed as inhibition of cell growth measured after 72 hrs by MTT assay

HeLa = test: cells; format: functional, cell-based; conditions: Homo sapiens, 72 h
Description: Antiproliferative activity against human HeLa cells assessed as inhibition of cell growth measured after 72 hrs by MTT assay

Row | Structure (SMILES) | inhibition [1] | IC50 (Hep 3B2) | IC50 (A549) | IC50 (HepG2) | IC50 (HCT-116) | IC50 (Huh-7) | IC50 (MCF7) | IC50 (Bel-7402) | IC50 (SNU-423) | IC50 (MDA-MB-231) | inhibition [6] | IC50 (SK-HEP1) | IC50 (CNE-2) | IC50 (HeLa) | IC50 (PLC-PRF-5) | other results
1 | Nc1ncnc2c1c(-c1cnc3[nH]ccc3c1)nn2CCCCCCC(=O)NO | 99.1% | 26.2 µM | 50 µM | 10.3 µM | 9.86 µM | 50.9 µM | 19.8 µM | 30.8 µM | 7.5 µM | 37.7 µM | 98.7% | 14.7 µM | 19.5 µM | 22 µM | > 50 µM | 
2 | Nc1nc2cc(-c3nn(CCCCCCCCC(=O)NO)c4ncnc(N)c34)ccc2o1 | 99% | 8.89 µM | 13.2 µM | 2.61 µM | 2.98 µM | 1.47 µM | 42.1 µM | > 100 µM | 4.94 µM | 30.3 µM | 99.3% | > 100 µM | 3.24 µM | 10.2 µM | 24 µM | 
3 | O=C(CCCCCCC(=O)Nc1ccccc1)NO [VORINOSTAT] |  |  |  |  |  |  |  | 27.4 µM | 0.079 µM |  |  |  |  |  | 2.22 µM | Stabilty [3]: Stable
4 | Nc1nc2cc(-c3nn(CCCCCCCCCC(=O)NO)c4ncnc(N)c34)ccc2o1 | 98.2% | 28.8 µM | > 50 µM | 28.6 µM | 23.1 µM | 41.2 µM | > 50 µM | > 50 µM | > 50 µM | > 50 µM | 92.4% | 14.1 µM | 36.8 µM | > 50 µM | > 100 µM | 
5 | Nc1ncnc2c1c(-c1cnc3[nH]ccc3c1)nn2CCCCCCCC(=O)NO | 100% | 16.3 µM | 51 µM | 5.63 µM | 6.76 µM | 23.5 µM | 7.57 µM | 17.4 µM | 5.4 µM | 15.8 µM | 98.7% | 3.95 µM | 8.99 µM | 29.1 µM | 35.9 µM | 
6 | CC(C)n1nc(-c2ccc3oc(N)nc3c2)c2c(N)ncnc21 [SAPANISERTIB] |  | 4.43 µM | 0.174 µM | 2.13 µM | 0.048 µM | 0.007 µM | 0.053 µM | > 100 µM | 0.015 µM | 0.031 µM |  | 0.008 µM | 0.101 µM | 0.036 µM | 6.63 µM | Stabilty [3]: Stable; IC50 (L02): 0.28 µM
7 | Nc1ncnc2c1c(-c1cnc3[nH]ccc3c1)nn2CCCCCCCCCC(=O)NO | 98.3% | 17.2 µM | 6.55 µM | 11.7 µM | 18.7 µM | 10.1 µM | 23.2 µM | 42.1 µM | 8.16 µM | 10.1 µM | 97.6% | 23.5 µM | 2.2 µM | 7.56 µM | 34.2 µM | 

Molecules with a lower IC50 (Bel-7402), results first:

Row | inhibition [1] | IC50 (Hep 3B2) | IC50 (A549) | IC50 (HepG2) | IC50 (HCT-116) | IC50 (Huh-7) | IC50 (MCF7) | IC50 (Bel-7402) | IC50 (SNU-423) | IC50 (MDA-MB-231) | inhibition [6] | IC50 (SK-HEP1) | IC50 (CNE-2) | IC50 (HeLa) | Structure (SMILES) | IC50 (PLC-PRF-5) | other results
8 | 99.1% | 10.3 µM | 8.36 µM | 3.64 µM | 3.15 µM | 2.77 µM | 7.22 µM | 13.2 µM | 0.28 µM | 2.9 µM | 99.6% | 10.7 µM | 2.25 µM | 12.9 µM | Nc1nc2cc(-c3nn(CCCCCCCC(=O)NO)c4ncnc(N)c34)ccc2o1 | 30.5 µM | IC50 (Histone deacetylase 2): 0.0034 µM; inhibition [2]: Active; remaining at 1 h, 10 ug/ml ([3]; liver microsomes, read-out: Stabilty): 63.9%; selectivity ratio (in vitro): 2.21; IC50 (Histone deacetylase 3): 0.0071 µM; inhibition [4]: Active; IC50 [5]: 0.00673 µM; IC50 (L02): 8.04 µM; IC50 (Histone deacetylase 8): 0.334 µM; IC50 (Histone deacetylase 1): 0.0025 µM
9 | 95.1% | 33.7 µM | > 100 µM | 2.1 µM | 34 µM | 9.22 µM | 14 µM | 2.4 µM | 3.03 µM | 21.2 µM | 99.4% | 6.4 µM | > 50 µM | 32.2 µM | Nc1nc2cc(-c3nn(CCCCC(=O)NO)c4ncnc(N)c34)ccc2o1 | 29.6 µM | 
10 | 97.8% | 34.2 µM | > 100 µM | 1.99 µM | 21.5 µM | 9.91 µM | 12.4 µM | 2.03 µM | 12.6 µM | 19 µM | 100% | 3.08 µM | 37.6 µM | 15.4 µM | Nc1nc2cc(-c3nn(CCCCCC(=O)NO)c4ncnc(N)c34)ccc2o1 | > 50 µM | 
